Here are results for three molecules from US20240197666A1, “DITERPENOID COMPOUNDS THAT ACT ON PROTEIN KINASE C (PKC)” (K-Gen Therapeutics, Inc., priority 2021, published 2024).

The test system of series [1] is phosphorylation of PKCμ, PKCδ and Erk1/2 in A549 lung cancer cells. The series can be described thus: Western blot of activation of PKC and downstream target protein in A549 cells. The series is classed as cell-based. The conditions noted are these: 0.3 μM, 30 minutes. The method in brief:
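A549 cells grown overnight were treated 30 min with compound at two concentrations. Lysates were analysed by Western blot or Wes with phospho-specific antibodies to PKCμ, PKCδ (including S299) and Erk1/2, using β-actin or vinculin loading controls. Prostratin at 1 μM served as reference.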

The next series deals with T1, C1b domain of human PKCθ (Homo sapiens, UniProt Q04759).
T1 construct: Genes encoding C1b domains of human PKCα, δ, ε, θ, and PKD1 (PKCμ) were synthesized; made in house; host or cells: E. coli BL21(DE3)
T1 sequence (Q04759 231-281 limits assumed): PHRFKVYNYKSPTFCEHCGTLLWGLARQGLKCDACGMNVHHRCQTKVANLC
In words: biochemical. The series is classed as binding. Conditions: 3H-PDBu competition. The method in brief:
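GST-C1b (human, E. coli-expressed) + 3H-PDBu + compound; 37° C 10 min shaking, then ice 20 min. Filter capture, scintillation count. IC50 → Ki via Cheng-Prusoff, per-prep measured Kd.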

Another series relates to CT26 tumors. The series can be described thus: CT26 syngeneic model, IT injection, efficacy and re-challenge. The series is classed as in vivo, mouse. The procedure:
Each 6-8 weeks old female Balb/c mouse was implanted subcutaneously with 3×10^5 CT26 mouse colon cancer cells. 20 animals were randomized when the average tumor volume reached 60 mm3. Tumor size was measured as described in Example 76. Animal body weight was monitored regularly as an indirect measure of toxicity. All mice tolerated drug treatments very well with less than 10% body weight loss. […] Scabs formed a few days later and the skin recovered with minimal scaring within 3-4 weeks.
For the efficacy portion of the study, the major endpoints were tumor growth inhibition and the animal survival.
To test if anti-tumor immunity was developed in the cured mice, the re-challenge portion of the study was conducted. The major endpoint was the tumor initiation (measurable tumor >50 mm^3) of the re-implanted tumor cells.
CT26 cells (3×10^5) were re-implanted into the right lower flank of the cured animals and 10 age-matched naïve control animals from the same batch to challenge animal immune system. An unrelated 4T1 breast cancer cell line (1×10^5) was implanted in the left upper flank of these animals at the same time. Tumor initiation and tumor growth were monitored. Data points represent group means of the tumor volumes and error bars represent standard error of the mean (SEM).

The mark [2] stands for this setting: challenge of 6 cured mice with 4T1 cells.
The mark [3] stands for this setting: re-challenge of 6 cured mice with CT26 cells, 32 days.

Structures are written as SMILES.

Take `CC1=C[C@H]2[C@@]3(O)[C@H](C)C[C@]4(OC(=O)[C@@H](N)CC5CCCCC5)[C@H]([C@@H]3C=C(CO)C[C@]2(O)C1=O)C4(C)C`: the “phosphorylation of PKCμ, PKCδ and Erk1/2” value in series [1] was “induced high levels of phosphorylation”.

On to `CC1=C[C@H]2[C@@]3(O)[C@H](C)C[C@]4(OC(=O)[C@@H](N)C5Cc6ccccc6C5)[C@H]([C@@H]3C=C(CO)C[C@]2(O)C1=O)C4(C)C`, for which, in series [1], the “phosphorylation of PKCμ, PKCδ and Erk1/2” value was “induced high levels of phosphorylation”.

Turning to `CC1=C[C@H]2[C@@]3(O)[C@H](C)C[C@]4(OC(=O)[C@H](N)CCCCCCc5ccccc5)[C@H]([C@@H]3C=C(CO)C[C@]2(O)C1=O)C4(C)C`, on C1b domain of human PKCθ, the Ki was 10 to 30 nM. Further, the body weight loss result with CT26 tumors (20 mg/ml, 20 μl (400 μg) IT, Balb/c mice) was “less than 10%”. Besides, the “mice alive at day 50 with tumors completely eradicated” value in the series on CT26 tumors (N 10) came out at 6. Also, the median survival result in the series on CT26 tumors (analysis to day 50) is recorded as “not reached”. Also, in the series with CT26 tumors (setting [2]), the “Tumor initiation (mice)” value is listed as 6 and the “Tumor-free (mice)” value turned out to be 0. In the series with CT26 tumors (day 3 after the first IT dose, N 10), the “mice with tumors eliminated” value is given as 8. The mean tumor volume in the series with CT26 tumors (day 12, 20 mg/ml, 20 μl IT) worked out at 35 mm^3. Besides, the “mice with tumor relapse” value with CT26 tumors (from day 10, N 10) is 4. In the series with CT26 tumors (setting [3]), the “Tumor initiation (mice)” value was determined as 0 and the “Tumor-free (mice)” value is 6.
